These results are taken from ChEMBL document CHEMBL1201862, “PubChem BioAssay data set” (2004).

SMILES strings stand for the structures.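 Following 48 hours of exposure in 96-well plates, responses at five concentrations were used to interpolate endpoints linearly. GI50: concentration for 50% inhibition of growth.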 Activity calls are given as the source filed them. Rule as the data show it: active = GI50 up to about 1.1 µM and inactive = higher.

Among the test systems are CCRF-CEM; OVCAR-8; SN12C; BT-549; SNB-19; Malme-3M; COLO 205; SK-MEL-5; NCI-H460; HL-60; MOLT-4; M14; RPMI-8226; MDA-MB-231; NCI/ADR-RES; HCT-15; RXF 393; TK-10; HOP-92; OVCAR-5.
Common to all, as to test: DTP human tumour cell line panel, 48 h

As to `Cc1cc(O)c2c(c1)CC(O)C1=C2C(=O)c2c(O)ccc(OC3CC(O)C(OC4CC(OC5CCC(O)C(C)O5)C(O)C(C)O4)C(C)O3)c2C1=O` (stereo unspecified), the GI50 (in general, the concentration giving 50% growth inhibition) in the assay with CCRF-CEM is 0.203 µM (active); in the assay with OVCAR-8 it was 1.65 µM (inactive); in the assay on SN12C, 1.73 µM (inactive); with BT-549, 1.86 µM (inactive); with SNB-19, 1.6 µM (inactive); in the assay with Malme-3M it was 0.789 µM (active). Moreover, the GI50 in the assay with COLO 205 is 1.39 µM (inactive); in the assay with SK-MEL-5 it was 1.43 µM (inactive); in the assay with NCI-H460 it was 2.16 µM (inactive); with HL-60 it was 0.386 µM (active); in the assay on MOLT-4, 0.305 µM (active); in the assay with M14, 1.5 µM (inactive). Further, the GI50 with RPMI-8226 was 0.53 µM (active); with MDA-MB-231, 1.77 µM (inactive); with NCI/ADR-RES it was 2.93 µM (inactive); in the assay with HCT-15, 1.96 µM; in the assay with RXF 393 it was 1.46 µM (inactive); in the assay on TK-10 it was 2.17 µM (inactive). Moreover, the GI50 in the assay on HOP-92 is 1.86 µM (inactive); in the assay on OVCAR-5, 3.81 µM (inactive).

As to `O=C1CSC2(CC(/C=C/c3ccccc3[N+](=O)[O-])=NN2c2cccc(S(=O)(=O)O)c2)N1c1nc2ccccc2s1` (stereo unspecified), the GI50 was 17.9 µM (inactive) in the assay on CCRF-CEM; 15.3 µM (inactive) with OVCAR-8; 20.3 µM (inactive) with SN12C; 17.3 µM (inactive) in the assay on BT-549; 15.5 µM (inactive) with SNB-19; 24.4 µM (inactive) in the assay with Malme-3M. Further, the GI50 is 33.1 µM (inactive) in the assay with COLO 205; 25.4 µM (inactive) in the assay with SK-MEL-5; 17 µM (inactive) with NCI-H460; 21.7 µM (inactive) in the assay with HL-60; 15.7 µM (inactive) with MOLT-4; 20.7 µM (inactive) with M14. Moreover, the GI50 was 16.8 µM (inactive) with RPMI-8226; 15.9 µM (inactive) in the assay on MDA-MB-231; 21.5 µM (inactive) in the assay on NCI/ADR-RES; 17 µM with HCT-15; 23.8 µM (inactive) in the assay with RXF 393; 15.1 µM (inactive) in the assay with TK-10. Further, the figures for the GI50 in the assay on HOP-92 and in the assay with OVCAR-5 were 25.5 µM (inactive) and 19.3 µM (inactive), respectively.

On to `COc1ccc([C@H]2[C@H](C)C3=Nc4ccccc4CN32)cc1`, for which the GI50 was 71.8 µM (inactive) with OVCAR-8; 63 µM (inactive) in the assay with SN12C; > 100 µM (inactive) in the assay with BT-549; > 100 µM (inactive) with SNB-19; > 100 µM (inactive) in the assay with Malme-3M; 45.1 µM (inactive) with COLO 205. The GI50 was 40.8 µM (inactive) in the assay on SK-MEL-5; 31.6 µM (inactive) with NCI-H460; 29.9 µM (inactive) in the assay with HL-60; 36.8 µM (inactive) in the assay with MOLT-4; 42.6 µM (inactive) in the assay with M14; 33.7 µM (inactive) in the assay with RPMI-8226. For the same compound, the GI50 is > 100 µM (inactive) in the assay with MDA-MB-231; > 100 µM (inactive) in the assay with NCI/ADR-RES; 76.2 µM with HCT-15; > 100 µM (inactive) in the assay with RXF 393; > 100 µM (inactive) in the assay on TK-10; 56.5 µM (inactive) in the assay on HOP-92. Moreover, the GI50 in the assay with OVCAR-5 is > 100 µM (inactive).

Take `O=C1NCN(c2ccccc2)C12CCN(CCc1ccc3[nH]c(=S)[nH]c3c1)CC2`: the GI50 in the assay on CCRF-CEM is 3.15 µM (inactive); in the assay on OVCAR-8, 51.9 µM (inactive); in the assay with SN12C it was 36.1 µM (inactive); with BT-549, 30.5 µM (inactive); in the assay with SNB-19, 43.5 µM (inactive); in the assay with Malme-3M, 15.6 µM (inactive). Further, the GI50 was 16.3 µM (inactive) in the assay on COLO 205; 17.5 µM (inactive) in the assay with SK-MEL-5; 31.8 µM (inactive) in the assay on NCI-H460; 29.1 µM (inactive) in the assay on HL-60; 41.4 µM (inactive) with MOLT-4; 19.6 µM (inactive) in the assay with M14. In addition, the GI50 is 22.3 µM (inactive) in the assay with RPMI-8226; 19.5 µM (inactive) in the assay with MDA-MB-231; > 100 µM (inactive) with NCI/ADR-RES; more than 100 µM in the assay on HCT-15; 13 µM (inactive) in the assay with RXF 393; 24.7 µM (inactive) in the assay with TK-10. In addition, the GI50 in the assay with HOP-92 was 13.9 µM (inactive); in the assay on OVCAR-5, > 100 µM (inactive).

With `CC1CC[C@@]2(OC1)OC1C[C@H]3[C@@H]4C/C(=N\N(C)C)[C@@]5(O)CC(O)CC[C@]5(C)[C@H]4CC[C@]3(C)C1[C@@H]2C` (stereo partly specified), the GI50 was 31.3 µM (inactive) in the assay on CCRF-CEM; 43.1 µM (inactive) in the assay on SN12C; 51.2 µM (inactive) in the assay on BT-549; 38.7 µM (inactive) in the assay with SNB-19; 29.7 µM (inactive) in the assay on Malme-3M; 43.9 µM (inactive) in the assay on COLO 205. Besides, the GI50 in the assay with SK-MEL-5 was 42 µM (inactive); with NCI-H460, 45.9 µM (inactive); with HL-60, 21.2 µM (inactive); in the assay with MOLT-4 it was 34.1 µM (inactive); in the assay on M14 it was > 100 µM (inactive); in the assay with RPMI-8226, 41.6 µM (inactive). The GI50 in the assay with MDA-MB-231 was 52.1 µM (inactive); with NCI/ADR-RES, 49.4 µM (inactive); in the assay with HCT-15, 67.1 µM; in the assay on RXF 393 it was 22.9 µM (inactive); in the assay with TK-10, 48.9 µM (inactive); with HOP-92 it was 98.2 µM (inactive). Moreover, in the assay on OVCAR-5, the GI50 is 43.5 µM (inactive).

`O=c1[nH]c(=S)[nH]cc1CN1CCOCC1`: the GI50 with CCRF-CEM, in the assay on OVCAR-8, with SN12C, in the assay on BT-549, in the assay on SNB-19 and with Malme-3M was > 100 µM (inactive) each time. The GI50 with COLO 205, with SK-MEL-5, with NCI-H460, in the assay on HL-60, in the assay with MOLT-4 and with M14 was > 100 µM (inactive) each time. Further, the GI50 is > 100 µM (inactive) with RPMI-8226; > 100 µM (inactive) in the assay with MDA-MB-231; > 100 µM (inactive) with NCI/ADR-RES; more than 100 µM with HCT-15; > 100 µM (inactive) in the assay on RXF 393; > 100 µM (inactive) with TK-10. In addition, the GI50 in the assay on HOP-92 and with OVCAR-5 was > 100 µM (inactive) each time.

As for `CCOC(=O)/C=C1/Nc2cc(F)c(F)cc2NC1=O`, the GI50 with CCRF-CEM, in the assay with OVCAR-8, with SN12C, with BT-549, with SNB-19 and in the assay on Malme-3M was > 100 µM (inactive) in each case. Further, the GI50 in the assay with COLO 205, with SK-MEL-5, with NCI-H460, with HL-60, in the assay on MOLT-4 and in the assay with M14 was > 100 µM (inactive) throughout. For the same compound, the GI50 in the assay with RPMI-8226 was > 100 µM (inactive); in the assay on MDA-MB-231, > 100 µM (inactive); in the assay with NCI/ADR-RES, > 100 µM (inactive); in the assay with HCT-15, more than 100 µM; in the assay with RXF 393 it was > 100 µM (inactive); in the assay on TK-10, > 100 µM (inactive). Further, the GI50 in the assay on HOP-92 and in the assay on OVCAR-5 was > 100 µM (inactive) throughout.

`O=C(N/N=C/c1ccc([N+](=O)[O-])cc1)c1cccc2nc3ccccc3nc12`: the GI50 was > 92.5 µM (inactive) in the assay on CCRF-CEM; > 90.8 µM (inactive) in the assay on OVCAR-8; > 100 µM (inactive) in the assay on SN12C; > 55.8 µM (inactive) in the assay with BT-549; > 55.8 µM (inactive) with SNB-19; > 100 µM (inactive) with Malme-3M. The GI50 was 2.65 µM (inactive) with COLO 205; 2.07 µM (inactive) in the assay with SK-MEL-5; 1.5 µM (inactive) in the assay with NCI-H460; > 100 µM (inactive) in the assay on HL-60; > 36.8 µM (inactive) with MOLT-4; > 100 µM (inactive) in the assay with M14. The GI50 with RPMI-8226 is > 100 µM (inactive); in the assay with MDA-MB-231, > 70.3 µM (inactive); in the assay with NCI/ADR-RES, > 100 µM (inactive); in the assay with HCT-15, more than 55.7 µM; with RXF 393 it was 33.3 µM (inactive); in the assay on TK-10, > 38 µM (inactive). Further, the GI50 in the assay with HOP-92 was > 51.9 µM (inactive); with OVCAR-5, > 86.1 µM (inactive).

As for `CN(C)c1ccc(/C=C2\N=C(NN)NC2=O)cc1`, the GI50 with CCRF-CEM was 65.8 µM (inactive); with OVCAR-8 it was 55 µM (inactive); in the assay with SN12C, > 100 µM (inactive); with BT-549, > 100 µM (inactive); with SNB-19 it was > 100 µM (inactive); with Malme-3M it was > 100 µM (inactive). The GI50 is > 100 µM (inactive) with COLO 205; 69.8 µM (inactive) in the assay on NCI-H460; 26.7 µM (inactive) in the assay on HL-60; 8.85 µM (inactive) in the assay with MOLT-4; > 100 µM (inactive) in the assay with M14; 49.3 µM (inactive) in the assay on RPMI-8226. For the same compound, the GI50 in the assay with MDA-MB-231 is 59.3 µM (inactive); in the assay with NCI/ADR-RES, 82.2 µM (inactive); with HCT-15, 50.8 µM; in the assay on RXF 393, 63.5 µM (inactive); in the assay with TK-10, > 100 µM (inactive); in the assay with HOP-92, 59.8 µM (inactive). Moreover, in the assay with OVCAR-5, the GI50 was > 100 µM (inactive).

Take `COC(=O)[C@@]12CC3CN(Cc4c1[nH]c1ccccc41)C2CC3=O`: the GI50 in the assay with CCRF-CEM, in the assay on OVCAR-8, in the assay on SN12C, in the assay on BT-549, with SNB-19 and in the assay on Malme-3M was > 100 µM (inactive) each time. Besides, the GI50 in the assay on COLO 205, in the assay with NCI-H460, in the assay on HL-60, in the assay on MOLT-4, in the assay with M14 and in the assay on RPMI-8226 was > 100 µM (inactive) throughout. For the same compound, the GI50 with MDA-MB-231 is > 100 µM (inactive); with NCI/ADR-RES, > 100 µM (inactive); with HCT-15 it was more than 100 µM; with RXF 393 it was > 100 µM (inactive); in the assay with TK-10, > 100 µM (inactive); with HOP-92, 26.7 µM (inactive). Moreover, the GI50 in the assay on OVCAR-5 is > 100 µM (inactive).
